# Experimental data published in patent publication US4395558A, “9-Epi-mitomycin B and D compounds” (Kyowa Hakko Kogyo Kabushiki Kaisha, priority 1979, dated 1983).
# Like-named read-outs stand apart in the source and are kept apart here.
# What was measured:
# Bacillus subtilis #10707 = test: Minimum growth inhibitory concentration by agar dilution method; type: cell-based; conditions: for Minimum growth inhibitory concentration: Bacillus subtilis #10707, agar dilution method at pH 7.0; for MIC: Bacillus subtilis, pH 7, read-out: Minimum growth inhibitory concentration
# Source text: (§1) Minimum growth inhibitory concentration (μg/ml)
# (§2) by agar dilution method at pH 7.0
# Escherichia coli ATCC 26 = test: as above; type: cell-based; conditions: for MIC: Escherichia coli, ATCC26, pH 7, read-out: Minimum growth inhibitory concentration; for Minimum growth inhibitory concentration: Escherichia coli ATCC 26, agar dilution method at pH 7.0
# Source text: as §1, §2
# [1] = system: Klebsiella pneumoniae ATCC 10031; test: as above; type: cell-based; conditions: for Minimum growth inhibitory concentration: Klebsiella pneumoniae ATCC 10031, agar dilution method at pH 7.0
# Source text: as §1, §2
# [2] = system: Shigella sonnei ATCC 9290; test: as above; type: cell-based; conditions: for Minimum growth inhibitory concentration: Shigella sonnei ATCC 9290; for MIC: Shigella sonnei
# Source text: as §1, §2
# [3] = system: Staphylococcus aureus ATCC 6538P; test: as above; type: cell-based; conditions: for Minimum growth inhibitory concentration: Staphylococcus aureus ATCC 6538P; for MIC: Staphylococcus aureus, ATCC6538P
# Source text: as §1, §2
# [4] = system: Proteus vulgaris ATCC 6897; test: as above; type: cell-based; conditions: for Minimum growth inhibitory concentration: Proteus vulgaris ATCC 6897; for MIC: Proteus vulgaris
# Source text: as §1, §2
# [5] = system: Salmonella typhosa ATCC 9992; test: as above; type: cell-based; conditions: for Minimum growth inhibitory concentration: Salmonella typhosa ATCC 9992, agar dilution method at pH 7.0
# mouse = test: LD50 (mouse, ip.); type: in vivo
# Source text: (§3) | LD50 (mouse, ip.) (mg/kg)
# [6] = system: Serratia marcescens ATCC 4003; test: Minimum growth inhibitory concentration by agar dilution method; type: cell-based; conditions: for Minimum growth inhibitory concentration: Serratia marcescens ATCC 4003, agar dilution method at pH 7.0; for MIC: Serratia marcescens, ATCC4003, pH 7, read-out: Minimum growth inhibitory concentration
# Source text: as §1, §2
# [7] = system: Pseudomonas cepacia ATCC 25608; test: as above; type: cell-based; conditions: for Minimum growth inhibitory concentration: Pseudomonas cepacia ATCC 25608, agar dilution method at pH 7.0; for MIC: Burkholderia cepacia, ATCC25608, pH 7, read-out: Minimum growth inhibitory concentration
# Source text: as §1, §2
# various microorganisms = test: Growth inhibition of various microorganisms / antibacterial activity (in words); type: cell-based; conditions: statement in words
# Source text: as §1, §2
# LD50 (mouse, ip.) = type: in vivo; conditions: in vivo, ip
# Source text: as §3
# [8] = agar dilution method at pH 7.0, listed as M-D
# [9] = agar dilution method at pH 7.0, listed as M-B
# [10] = agar dilution method at pH 7.0, listed as Vb-1
smiles,measurement,setting,value
"CC1=C(N)C(=O)C2=C(C1=O)N1CC3C(N3C)C1(O)C2COC(N)=O (centres unmarked) [mitomycin D, 7-amino-7-demethoxy mitomycin B]",Minimum growth inhibitory concentration,Bacillus subtilis #10707,6.3 µg/mL
same,MIC,Escherichia coli ATCC 26,> 50 µg/mL
same,Minimum growth inhibitory concentration,[1]; listed as M-D,6.3 µg/mL
same,Minimum growth inhibitory concentration,[2]; [8],50 µg/mL
same,Minimum growth inhibitory concentration,[3]; [8],50 µg/mL
same,Minimum growth inhibitory concentration,[4]; [8],25 µg/mL
same,Minimum growth inhibitory concentration,[5],> 50 µg/mL
same,LD50,mouse,430 mg/kg
"COC1=C(C)C(=O)C2=C(C1=O)C(COC(N)=O)C1(O)C3C(CN21)N3C (centres unmarked) [mitomycin B, Mitomycin B]",Minimum growth inhibitory concentration,Bacillus subtilis #10707; listed as M-B,0.020 µg/mL
same,Minimum growth inhibitory concentration,Escherichia coli ATCC 26; listed as M-B,> 10 µg/mL
same,Minimum growth inhibitory concentration,[1]; listed as M-B,0.16 µg/mL
same,Minimum growth inhibitory concentration,[6]; listed as M-B,2.5 µg/mL
same,Minimum growth inhibitory concentration,[2]; [9],5.0 µg/mL
same,Minimum growth inhibitory concentration,[3]; [9],0.039 µg/mL
same,Minimum growth inhibitory concentration,[7]; listed as M-B,10 µg/mL
same,Minimum growth inhibitory concentration,[4]; [9],0.078 µg/mL
same,Minimum growth inhibitory concentration,[5]; listed as M-B,10.0 µg/mL
same,LD50,mouse,4.5 mg/kg
CC1=C(N)C(=O)C2=C(C1=O)N1CC3C(N3C)C1(O)C2COC(N)=O (stereo not drawn) [9-epi-mitomycin D],inhibiting activity against the growth of various microorganisms / antibacterial activity,various microorganisms,high inhibiting activity
same,MIC,Bacillus subtilis #10707,6.3 µg/mL
same,Minimum growth inhibitory concentration,[1]; listed as Va-1,3.1 µg/mL
same,MIC,[6],> 50 µg/mL
same,MIC,"[2]; ATCC9290, pH 7, read-out: Minimum growth inhibitory concentration, Shigella sonnei ATCC 9290, agar dilution method at pH 7.0",> 50 µg/mL
same,MIC,"[3]; pH 7, read-out: Minimum growth inhibitory concentration, Staphylococcus aureus ATCC 6538P, agar dilution method at pH 7.0",25 µg/mL
same,MIC,[7],> 50 µg/mL
same,MIC,"[4]; ATCC6897, pH 7, read-out: Minimum growth inhibitory concentration, Proteus vulgaris ATCC 6897, agar dilution method at pH 7.0",12.5 µg/mL
same,MIC,"[5]; Salmonella enterica, pH 7, read-out: Minimum growth inhibitory concentration",> 50 µg/mL
same,LD50,mouse,150 mg/kg
COC1=C(C)C(=O)C2=C(C1=O)C(COC(N)=O)C1(O)C3C(CN21)N3C (stereo not drawn) [9-epi-mitomycin B],inhibiting activity against the growth of various microorganisms / antibacterial activity,various microorganisms,high inhibiting activity
same,Minimum growth inhibitory concentration,Bacillus subtilis #10707; listed as Vb-1,< 0.024 µg/mL
same,Minimum growth inhibitory concentration,Escherichia coli ATCC 26; listed as Vb-1,12.5 µg/mL
same,Minimum growth inhibitory concentration,[1]; listed as Vb-1,< 0.024 µg/mL
same,Minimum growth inhibitory concentration,[6]; listed as Vb-1,3.1 µg/mL
same,Minimum growth inhibitory concentration,[2]; [10],6.3 µg/mL
same,Minimum growth inhibitory concentration,[3]; [10],0.049 µg/mL
same,Minimum growth inhibitory concentration,[7]; listed as Vb-1,25 µg/mL
same,Minimum growth inhibitory concentration,[4]; [10],0.049 µg/mL
same,Minimum growth inhibitory concentration,[5]; listed as Vb-1,6.3 µg/mL
same,LD50,"LD50 (mouse, ip.)",7.5 mg/kg
"CO[C@@]12[C@H](COC(N)=O)C3=C(C(=O)C(C)=C(N)C3=O)N1C[C@@H]1N[C@@H]12 [mitomycin C, Mitomycin C]",MIC,Bacillus subtilis #10707,0.02 µg/mL
same,MIC,Escherichia coli ATCC 26,10 µg/mL
same,MIC,"[1]; Klebsiella pneumoniae, ATCC10031, pH 7, read-out: Minimum growth inhibitory concentration",0.0098 µg/mL
same,MIC,[6],5 µg/mL
same,MIC,"[2]; ATCC9290, pH 7, read-out: Minimum growth inhibitory concentration",5 µg/mL
same,MIC,"[3]; pH 7, read-out: Minimum growth inhibitory concentration",0.156 µg/mL
same,MIC,[7],10 µg/mL
same,MIC,"[4]; ATCC6897, pH 7, read-out: Minimum growth inhibitory concentration",0.078 µg/mL
